The test system of test [1] is A549. As to the kind of experiment: Cytotoxicity against human A549 cells assessed as inhibition of cell viability at 10 uM by SRB assay relative to control. Type of test: functional. In general terms: In SRB staining, fixed cells bind dye roughly in proportion to their protein.
The test system of test [2] is HL-60. The test is described as follows: Cytotoxicity against human HL60 cells assessed as inhibition of cell viability at 10 uM by MTT assay relative to control. Type of test: functional. (In general: Tetrazolium assays rely on reduction of a dye to a coloured formazan, in cell work by metabolically active cells.)
Test [3] concerns KB. As to the kind of experiment: Cytotoxicity against human KB cells assessed as inhibition of cell viability at 10 uM by SRB assay relative to control. The class given is functional.
Test [4] concerns HT-29. As to the kind of experiment: Cytotoxicity against human HT-29 cells assessed as inhibition of cell viability at 10 uM by SRB assay relative to control. The class given is functional.
In test [5] the test system is HL-60. The test is described as follows: Cytotoxicity against human HL60 cells by MTT assay. Type of test: functional, cell-based.
Test [6] concerns HT-29. The test is described as follows: Cytotoxicity against human HT-29 cells by SRB assay. Type of test: functional, cell-based.
Test [7] relates to KB. As to the kind of experiment: Cytotoxicity against human KB cells by SRB assay. The class given is functional, cell-based.
The test system of test [8] is A549. As to the kind of experiment: Cytotoxicity against human A549 cells by SRB assay. Type of test: functional, cell-based.

Molecules are shown by their SMILES. Where a name gives a salt, the structure may show the parent alone.

For orientation: inhibition means how much of the control response was suppressed. Turning to `C[C@@H]1C[C@@H]2OC(=O)C13CC[C@@]14C[C@@H](OC1=O)[C@H](O)[C@](C)(O)C1=C4[C@@H]3[C@@H]2C1`, the inhibition at 10 µM in the test with A549 [1], with HL-60 [2], in the test on KB [3] and with HT-29 [4] was < 50% in each case.

With `Cc1ccc2c3c1C[C@@H]1[C@@H]4C[C@@H](C)C(CC2=O)(C(=O)O4)[C@]31O`, the inhibition at 10 µM in the test on A549 [1], in the test on HL-60 [2], with KB [3] and in the test on HT-29 [4] was < 50% throughout.

What is called IC50 is the midpoint of a concentration-inhibition curve. A high value points to weaker potency in that assay. With `Cc1cc(=O)cc2c3c1C[C@@H]1[C@@H]4C[C@@H](C)C(CC2)(C(=O)O4)[C@]31O`, the IC50 in the test with HL-60 [5] came out at 1240 nM; in the test with HT-29 [6], 3220 nM; in the test with KB [7] it was 2650 nM; with A549 [8], 6090 nM.

As to `Cc1cc(=O)cc2c3c1C[C@@H]1[C@@H]4C[C@@H](C)C(C=C2)(C(=O)O4)[C@]31O`, the inhibition at 10 µM in the test on A549 [1], with HL-60 [2], in the test with KB [3] and in the test on HT-29 [4] was < 50% throughout.

Take `CC1=C[C@H]2C[C@]3(CCC45C(=O)O[C@@H](C[C@H]4C)[C@H]4C[C@H]1[C@@H]3[C@H]45)CO2`: the inhibition at 10 µM in the test on A549 [1], in the test with HL-60 [2], in the test on KB [3] and in the test with HT-29 [4] was < 50% throughout.

With `C[C@@H]1C[C@@H]2OC(=O)C13CC[C@]14C[C@H](C=C(CO)[C@H]5C[C@H]2[C@H]3[C@@H]51)OC4=O`, the inhibition at 10 µM with A549 [1], in the test with HL-60 [2], with KB [3] and with HT-29 [4] was < 50% in each case.

For `COC(=O)c1cc(C)c2c3c1C(=O)CC14C(=O)O[C@@H](C[C@H]1C)[C@@H](C2)[C@@]34O`, the inhibition at 10 µM in the test with A549 [1], with HL-60 [2], in the test with KB [3] and with HT-29 [4] was < 50% in each case.

For the compound `COc1cccc2c1C(=O)c1c(O)c3c(c(O)c1C2=O)C[C@@](O)(C(=O)CO)C[C@@H]3O[C@H]1C[C@H](N)[C@H](O)[C@H](C)O1` [DOXORUBICIN HYDROCHLORIDE], the IC50 in the test on HL-60 [5] came out at 76 nM; with HT-29 [6] it was 559 nM; in the test with KB [7], 570 nM.

With `C=C1[C@H](O)CC[C@@]2(CO)CCC34C(=O)O[C@@H](C[C@H]3C)[C@H]3C[C@H]1[C@@H]2[C@H]34`, the inhibition at 10 µM in the test with A549 [1], with HL-60 [2], with KB [3] and in the test on HT-29 [4] was < 50% in each case.

Consider `CC1=CCC[C@@]2(CO)CCC34C(=O)O[C@@H](C[C@H]3C)[C@H]3C[C@H]1[C@@H]2[C@H]34`, for which the inhibition at 10 µM in the test with A549 [1], in the test with HL-60 [2], in the test with KB [3] and with HT-29 [4] was < 50% throughout.

Regarding `Cc1c(O)cc2c3c1C[C@@H]1[C@@H]4C[C@@H](C)C(CC2)(C(=O)O4)[C@H]31`, the inhibition at 10 µM with A549 [1], in the test on HL-60 [2], with KB [3] and in the test on HT-29 [4] was < 50% in each case.

For the compound `Cc1c(O)cc2c3c1[C@@H]1O[C@H]4C5OC(=O)C(CC2)([C@@H]4C)[C@H]3[C@@H]51`, the inhibition at 10 µM in the test with A549 [1], in the test with HL-60 [2], in the test on KB [3] and in the test with HT-29 [4] was < 50% in each case.

As for `Cc1cc(=O)cc2c3c1[C@@H]1O[C@H]4C5OC(=O)C(CC2)([C@@H]4C)[C@H]3[C@@]51O`, the IC50 with HL-60 [5] was 464 nM; with HT-29 [6], 817 nM; in the test on KB [7] it was 964 nM; in the test with A549 [8], 1330 nM.

The values above are taken from ChEMBL document CHEMBL4130576, “Cephanolides A-J, Cephalotane-Type Diterpenoids from Cephalotaxus sinensis” (J Nat Prod, 2017).
